Blank lines part the entries; values can stand above or below the compound they belong to.
Assays:
[1] = target: B. licheniformis strain B6 glyphosate-N-acetyltransferase (GAT), native, B6, SEQ ID NO:7 (Bacillus licheniformis, UniProt Q65LG7); experiment: Apparent KM for Acetyl CoA and kcat of purified GAT, mass spectrometric detection of N-acetyl glyphosate; assay type: biochemical
[2] = target: native GAT polypeptide 401 (SEQ ID NO:6), glyphosate-N-acetyltransferase (Bacillus licheniformis, UniProt Q65LG7); experiment: GAT activity with respect to glyphosate, aspartate and serine (Table 21), DTNB read-out; assay type: biochemical; conditions: AcCoA as acetyl donor, 25 mM Hepes, pH 6.8, 10% ethylene glycol
Method: (§1) GAT activity of several GAT polypeptides of the disclosure was evaluated with respect to a number of amino acid substrates. The GAT polypeptide, AcCoA and amino substrate were incubated in 25 mM Hepes, pH 6.8, 10% ethylene glycol in the wells of a 96-well polystyrene plate. After 30 minutes, the reactions were stopped by the addition of 30 µl of 10 mM 5, 5'-dithiobis-2-nitrobenzoate (DTNB) in 500 mM Tris, pH 7.5. After 2 minutes, absorbance was read at 412 nm in a Spectramax Plus plate reader (Molecular Devices, Sunnyvale, CA).
(§2) Activity with the other protein amino acids was either undetected or less than 3% that of GAT activity towards glyphosate as the substrate. […] The percentages refer to percent activity relative to activity of the GAT polypeptide towards the substrate, glyphosate. Some of the data is shown below in Table 21. Table 21: GAT activity with respect to Glyphosate, Aspartate and Serine

[3] = target: non-native GAT polypeptide 17-15H3 (SEQ ID NO:601), glyphosate-N-acetyltransferase (Bacillus licheniformis, UniProt Q65LG7); experiment: as above; assay type: biochemical; conditions: AcCoA as acetyl donor, 25 mM Hepes, pH 6.8, 10% ethylene glycol
Method: as §1, §2

[4] = target: non-native GAT polypeptide 25-8H7 (SEQ ID NO:907), glyphosate-N-acetyltransferase (Bacillus licheniformis, UniProt Q65LG7); experiment: as above; assay type: biochemical; conditions: AcCoA as acetyl donor, 25 mM Hepes, pH 6.8, 10% ethylene glycol
Method: as §1, §2

[5] = tested on: GAT20-30C6 (SEQ ID NO:683) variant 20-30C6 H138A; experiment: GAT kinetics of active-site mutants, 0 KCl, Bradford protein assay (Table 12); assay type: biochemical
Method: (§3) KM was calculated from the initial reaction rates obtained from concentrations of glyphosate ranging from 0.125 to 10 mM, using the Lineweaver-Burke transformation of the Michaelis-Menten equation. kcat/KM was determined by dividing the value determined for kcat by the value determined for KM.
(§4) The amino acids aspartic acid (Asp, D), histidine (His, H) and cysteine (Cys, C) are known to be associated with the active sites of various acetyltransferase enzymes. To determine if any such residues play a role in GAT activity, all D, C, and H residues of GAT20-30C6 (SEQ ID NO:683) were individually mutated to alanine (Ala, A) and the mutated enzymes assayed for N-acetylglyphosate activity. […]

[6] = target: GAT20-30C6 (SEQ ID NO:683) variant 20-30C6 H138R (Bacillus licheniformis, UniProt Q65LG7, form not given/H138R); experiment: as above; assay type: biochemical
Method: as §3, §4

[7] = target: GAT20-30C6 (SEQ ID NO:683) variant 20-30C6 H138S (Bacillus licheniformis, UniProt Q65LG7, form not given/H138S); experiment: as above; assay type: biochemical
Method: as §3, §4

[8] = target: GAT20-30C6 (SEQ ID NO:683) variant 20-30C6 H41A (Bacillus licheniformis, UniProt Q65LG7, form not given/H41A); experiment: as above; assay type: biochemical
Method: as §3, §4

[9] = target: GAT20-30C6 (SEQ ID NO:683), evolved glyphosate-N-acetyltransferase, unmodified (Bacillus licheniformis, UniProt Q65LG7); experiment: as above; assay type: biochemical
Method: as §3, §4

[10] = tested on: O=C(O)CNCP(=O)(O)O; experiment: Apparent KM for glyphosate of purified GAT, continuous spectrophotometric assay at 235 nm; assay type: biochemical, B. licheniformis; conditions: other: saturating (200 µM) Acetyl CoA, 1 µM purified GAT, 5 mM morpholine pH 7.7, 20 % ethylene glycol, 37.0 °C
From the text: Genomic DNA from B. licheniformis strain B6 was purified, partially digested with Sau3A1 and fragments of 1-10 Kb were cloned into an E. coli expression vector. A clone with a 2.5 kb insert conferred the glyphosate-N-acetyltransferase (GAT) activity on the E. coli host as determined with mass spectrometry analysis. […] Subsequent cloning of this open reading frame confirmed that it encoded the GAT enzyme. The gene encoding the GAT enzyme of B6 was transformed into E. coli strain XL1 Blue. A 10% innoculum of a saturated culture was added to Luria broth, and the culture was incubated at 37° C for 1 hr. Expression of GAT was induced by the addition of IPTG at a concentration of 1 mM. The culture was incubated a further 4 hrs, following which, cells were harvested by centrifugation and the cell pellet stored at -80°C.
Lysis of the cells was effected by the addition of 1 ml of the following buffer to 0.2 g of cells: 25 mM HEPES, pH 7.3, 100 mM KCl and 10% methanol (HKM) plus 0.1 mM EDTA, 1 mM DTT, 1 mg/ml chicken egg lysozyme, and a protease inhibitor cocktail obtained from Sigma and used according to the manufacturers recommendations. After 20 minutes incubation at room temperature (e.g., 22-25°C), lysis was completed with brief sonication. The lysate was centrifuged and the supernatant was desalted by passage through Sephadex G25 equilibrated with HKM. […]

[11] = tested on: CC(=O)SCCNC(=O)CCNC(=O)[C@H](O)C(C)(C)COP(=O)(O)OP(=O)(O)OC[C@H]1O[C@@H](n2cnc3c(N)ncnc32)[C@H](O)[C@@H]1OP(=O)(O)O; experiment: purified protein, by the assay type; conditions: other: 5 mM glyphosate, 0.19 µM GAT, 5 mM morpholine pH 7.7, 50% methanol

Km ([1]; read-out: apparent KM for Acetyl CoA, 5 mM glyphosate, 0.19 µM GAT, 5 mM morpholine pH 7.7, 50% methanol): ~2 µM
Compound: CC(=O)SCCNC(=O)CCNC(=O)[C@H](O)C(C)(C)COP(=O)(O)OP(=O)(O)OC[C@H]1O[C@@H](n2cnc3c(N)ncnc32)[C@H](O)[C@@H]1OP(=O)(O)O [Acetyl CoA]

Compound: N[C@@H](CO)C(=O)O [Serine, L-serine]
kcat±SE [2]: 14.2 s⁻¹
kcat±SE [3]: 242 + 15.8 min^-1
kcat±SE [4]: 6.47 ± 0.308 s⁻¹

Compound: O=C(O)CNCP(=O)(O)O [glyphosate, N-phosphonomethylglycine]
kcat ([1]; calculated from Vmax at a known concentration of enzyme, acetylation of glyphosate by Acetyl CoA): 0.1 s⁻¹
kcat [5]: < 0.00033 s⁻¹
kcat [6]: 0.738 s⁻¹
kcat [7]: 0.0892 s⁻¹
kcat [8]: 3.47 s⁻¹
kcat [9]: 6.43 s⁻¹
kcat±SE [2]: 0.0892 ± 0.000717 s⁻¹
kcat±SE [3]: 1150 ± 27.6 min⁻¹
kcat±SE [4]: 24.67 ± 1.09 s⁻¹

Compound: B. licheniformis strain B6 glyphosate-N-acetyltransferase (GAT), native, B6, SEQ ID NO:7 (Bacillus licheniformis DSM 13 = ATCC 14580)
Km [10]: 2900 ± 200 µM
kcat [10]: 0.1 s⁻¹
Km [11]: 2 µM
